Source: patent publication US8545816B2, “Benzoic acid ester compounds, compositions, uses and methods related thereto” (Ferrer Internacional, S.A., priority 2005, dated 2013)

Tests used:
[1] = Phototransposition under UVB lamp irradiation (UV absorption spectrum / TLC follow-up); format: physicochemical; settings: for time to complete phototransposition (conversion to the dibenzoylmethane / benzophenone sunscreen): solution in methanol
Description: A solution of 5 mg of 1-phenylvinyl 4-methoxybenzoate in 10 mL of methanol was irradiated with UVB lamps ([…]) for 20 minutes at 35° C. […] The conversion to benzoyl-4-methoxybenzoyl-methane was observed from the beginning, being the complete conversion in 5 minutes.
A sample of 4 mL of a solution containing 0.231 mg of 1-(4-methoxyphenyl)-vinyl 4-tert-butylbenzoate in 50 mL of methanol was irradiated with UVB lamps (60 W·m^−2) for 10 minutes at 35° C. The conversion to avobenzone was completed in 5 minutes.
A sample of 4 mL of a solution containing 0.400 mg of 1-(4-tert-butylphenyl)-vinyl 4-methoxybenzoate in 50 mL of methanol was irradiated with UVB lamps (60 W·m^−2) for 10 minutes at 35° C. The conversion to avobenzone was completed in 5 minutes.
A solution containing 5 mg of 4-benzoyloxy-2-methoxy-benzenesulfonic acid in 10 mL of methanol was irradiated with UVB lamps (60 W·m^−2) for 20 minutes at 35° C. The absorption spectrum was then recorded minute by minute. The conversion to sulisobenzone was complete in 10 minutes.
A sample of 4 mL of a solution containing 0.395 mg of 3-diethylaminophenyl benzoate in 50 mL of methanol was irradiated with UVB lamps (60 W·m^−2) for 20 minutes at 35° C. The phototransformation to 4-diethylamino-2-hydroxybenzophenone was completed in 10 minutes.
A sample of 5 mg of 3-methoxyphenyl benzoate in 10 mL of polydimethylsiloxane (viscosity 10000 cSt) was irradiated with UVB lamps (60 W·m^−2) for 15 hours and 20 minutes at 35° C. The phototransformation to oxybenzone was completed in 40 minutes.
A solution of 5 mg of 1-phenylvinyl 4-tert-butylbenzoate in 10 mL of tert-butanol was irradiated with UVB lamps (60 W·m^−2) for 5 hours at 35° C.

[2] = cited from earlier work; for Absorbance: UV region absorbed; for Protection nm: wavelength range of protection

Row | Compound | time to complete phototransposition (conversion to the dibenzoylmethane / benzophenone sunscreen) ([1]; UVB lamps 60 W·m^−2, 35° C.) [min] | Absorbance [2] | Protection nm [2] | other results
1 | CCN(CC)c1cccc(OC(=O)c2ccccc2)c1 [3-diethylaminophenyl benzoate, 3-Diethylaminophenyl benzoate] | 10 |  |  | 
2 | COc1cc(O)c(C(=O)c2ccccc2)cc1S(=O)(=O)O [Sulisobenzone, 5-benzoyl-4-hydroxy-2-methoxy-benzenesulfonic acid] |  | UVB, UVA II^2 | 260-375 nm | 
3 | COc1cc(OC(=O)c2ccccc2)ccc1S(=O)(=O)O [4-Benzoyloxy-2-methoxybenzene-sulfonic acid] | 10 |  |  | 
4 | C=C(OC(=O)c1ccc(OC)cc1)c1ccc(C(C)(C)C)cc1 [1-(4-Tert-butylphenyl)-vinyl 4-methoxybenzoate] | 5 |  |  | 
5 | COc1ccc(C(=O)CC(=O)c2ccc(C(C)(C)C)cc2)cc1 [Avobenzone, 4-tert-butyl-4′-methoxydibenzoylmethane] |  | UVA I^1 (340-400 nm) | 320-400 nm | 
6 | COc1ccc(C(=O)c2ccccc2)c(O)c1 [Oxybenzone, 2-hydroxy-4-methoxybenzophenone] |  | UVB, UVA II^2 | 270-350 nm | 
7 | C=C(OC(=O)c1ccc(C(C)(C)C)cc1)c1ccc(OC)cc1 [1-(4-Methoxyphenyl)-vinyl 4-tert-butylbenzoate] | 5 |  |  | 
8 | COc1cccc(OC(=O)c2ccccc2)c1 [3-methoxyphenyl benzoate, 3-Methoxyphenyl benzoate] |  |  |  | time to complete phototransformation to oxybenzone ([1]; in polydimethylsiloxane (viscosity 10000 cSt), UVB lamps 60 W·m^−2, 35° C.): 40 min
9 | C=C(OC(=O)c1ccc(C(C)(C)C)cc1)c1ccccc1 [1-phenylvinyl 4-tert-butylbenzoate, 1-Phenylvinyl 4-tert-butyl-benzoate] |  |  |  | products detected after irradiation (thin layer chromatography, 1H-NMR) ([1]; tert-butanol, UVB lamps 60 W·m^−2, 5 hours, 35° C.): Some different compounds were detected by thin layer chromatography (hexane/ethyl acetate 2:1), one of said compounds being benzoyl-4-tert-butylbenzoylmethane
10 | C=C(OC(=O)c1ccc(OC)cc1)c1ccccc1 [1-phenylvinyl 4-methoxybenzoate, 1-Phenylvinyl 4-methoxybenzoate] | 5 |  |  | crude reaction spectrum after irradiation ([1]; methanol, UVB lamps, 20 minutes, 35° C.): new absorption band in UVA zone
